Results taken from US7608630B2, “Marasmius androsaceus L.es Fr extract, piperidone derivative, and their use for the preparation of hypertensives” (Hainan Yangpu New Special Pharmaceutical Co., Ltd., priority 2004, dated 2009).
Where “and” joins values, the source holds several entries; their conditions need not be identical. Identical values can stand only once.

Experiments:
blood pressure of cats = test: Reduction of blood pressure of cat; assay type: in vivo; settings: cats, 10 mg/kg o.s; for Diastolic pressure, individual animals / Systolic pressure, Animal 1-4 individually: 10 mg/kg
Procedure: (§1) A spontaneously hypertensive rat (SHR) was anesthetized with 40 mg/ml pentobarbital, and fixed by its back on an experimental stand. The skin at its neck was cut open after removing hair, and thereafter the right common carotid artery was separated with its proximal end being clamped by a artery clamp and its axifugal end being ligated by a thread. A V-shape cut was made with scissors at the axifugal end, into which an arterial cannula filled with heparin physiological saline was inserted. The arterial cannula was connected with a blood pressure transducer, and then the blood pressure transducer was connected to a computer-controlled three-way physiological-pharmacological recorder. The right femoral vein of the rat was separated and intubated for the injection of a drug. When the blood pressure became stable (i.e., the blood pressure contraction curve became straight), the rat was administered by intravenous route.
Five cats of 2.5-3.2 kg were administered orally and intravenously respectively according to the method in Example 8, and then their systolic pressure and diastolic pressure were determined using normal cats non-administered as a control group.

[1] = system: aorta smooth muscle of rabbit; test: Effects on aorta of rabbit (contraction of isolated aorta section caused by adrenalin); set-up: species or system New Zealand rabbit
Procedure: A New Zealand rabbit was beheaded and unconscious. After thoracotomy, its thoracic aorta was quickly taken out, and quickly placed in and flushed with a pre-cooled LOCK's solution (which comprised of 1000 ml water, 9 g NaCl, 0.35 g KCl, 0.35 g MgSO4.7H2O, 0.16 g KH2PO4, and 1 g NaHCO3) to remove bloodiness. The connective tissue outside the blood vessel was carefully cut off, and an aorta section of 2-3 mm wide at an angle of 45° relative to the vessel was taken for use in the following test.
The aorta section of 2 cm long was clamped at its both ends with frog heart clips, and put in a thermostatic perfusion tank of 38° C. with the lower end being fixed at the bottom of the tank and the top end being connected by a thread to a tensile transducer of a two-way electrophysiolograph. Oxygen was bubbled to the solution in the perfusion tank, and the contraction force of the aorta section was recorded after balancing it in the solution for 80 min. During which, the LOCK's solution was changed once per 20 min. After adding 1.2×10^−6 mg/ml adrenalin to the solution, the contraction curve of the aorta section was recorded.

[2] = system: blood pressure of SHR rat; test: Reduction of blood pressure of anesthetized SHR rat; assay type: in vivo, spontaneously hypertensive rat (SHR); settings: for Diastolic pressure / Systolic pressure: 10 mg/kg intravenous
Procedure: as §1

[3] = system: ileum smooth muscle of guinea pig; test: Effects on ileum smooth muscle of guinea pig (automatic rhythmic contraction of isolated ileum section)
Procedure: The section was clamped at its both ends with frog heart clips, and placed in a perfusion tank with the lower end being fixed at the bottom of the tank and the top end being connected by a thread to a tensile transducer of a two-way electrophysiolograph, so that the automatic rhythmic contraction of the ileum section was recorded. The Tai's nutrient solution in the tank was kept at a temperature of 35° C., into which pure […] was bubbled. […] The normal contraction curve of the ileum section was firstly recorded using isoprenaline as a positive control.

[4] = concentration range 5×10^−4 to 10×10^−2 mg/ml
[5] = SHR rat, 5 min after administration
[6] = SHR rat, 60 min after administration
[7] = SHR rat, 120 min after administration
[8] = SHR rat, 240 min after administration

CC1(C)CNCC(C)(C)C1=O [Compound of formula II, 3,3,5,5-tetramethyl-4-piperidone]
Average Diastolic pressure (blood pressure of cats; 40 min after administration): 95.25 mmHg | Average Systolic pressure (blood pressure of cats; 40 min after administration): 140.5 mmHg | Diastolic pressure, individual animals (blood pressure of cats; 40 min after administration): 107 mmHg and 100 mmHg and 95 mmHg and 79 mmHg | Systolic pressure, Animal 1-4 individually (blood pressure of cats; 40 min after administration): 146 mmHg and 133 mmHg and 143 mmHg and 140 mmHg | Average Diastolic pressure (blood pressure of cats; 50 min after administration): 101 mmHg | Average Systolic pressure (blood pressure of cats; 50 min after administration): 144.25 mmHg | Diastolic pressure, individual animals (blood pressure of cats; 50 min after administration): 110 mmHg and 116 mmHg and 95 mmHg and 83 mmHg | Systolic pressure, Animal 1-4 individually (blood pressure of cats; 50 min after administration): 149 mmHg and 140 mmHg and 144 mmHg (2×) | Average Diastolic pressure (blood pressure of cats; 60 min after administration): 103 mmHg | Average Systolic pressure (blood pressure of cats; 60 min after administration): 144 mmHg | Diastolic pressure, individual animals (blood pressure of cats; 60 min after administration): 110 mmHg and 117 mmHg and 102 mmHg and 83 mmHg | Systolic pressure, Animal 1-4 individually (blood pressure of cats; 60 min after administration): 149 mmHg and 153 mmHg and 130 mmHg and 144 mmHg | Average Diastolic pressure (blood pressure of cats; 90 min after administration): 103.75 mmHg | Average Systolic pressure (blood pressure of cats; 90 min after administration): 157 mmHg | Diastolic pressure, individual animals (blood pressure of cats; 90 min after administration): 102 mmHg and 120 mmHg and 97 mmHg and 96 mmHg | Systolic pressure, Animal 1-4 individually (blood pressure of cats; 90 min after administration): 154 mmHg (2×) and 180 mmHg and 140 mmHg | Average Diastolic pressure (blood pressure of cats; 120 min after administration): 108.25 mmHg | Average Systolic pressure (blood pressure of cats; 120 min after administration): 165 mmHg | Diastolic pressure, individual animals (blood pressure of cats; 120 min after administration): 93 mmHg and 154 mmHg and 96 mmHg and 90 mmHg | Systolic pressure, Animal 1-4 individually (blood pressure of cats; 120 min after administration): 146 mmHg and 195 mmHg and 163 mmHg and 156 mmHg | Average Diastolic pressure (blood pressure of cats; 150 min after administration): 111.75 mmHg | Average Systolic pressure (blood pressure of cats; 150 min after administration): 169.25 mmHg | Diastolic pressure, individual animals (blood pressure of cats; 150 min after administration): 93 mmHg and 161 mmHg and 109 mmHg and 84 mmHg | Systolic pressure, Animal 1-4 individually (blood pressure of cats; 150 min after administration): 146 mmHg and 206 mmHg and 168 mmHg and 157 mmHg | Average Diastolic pressure (blood pressure of cats; 180 min after administration): 117.5 mmHg | Average Systolic pressure (blood pressure of cats; 180 min after administration): 176.25 mmHg | Diastolic pressure, individual animals (blood pressure of cats; 180 min after administration): 107 mmHg and 164 mmHg and 112 mmHg and 87 mmHg | Systolic pressure, Animal 1-4 individually (blood pressure of cats; 180 min after administration): 158 mmHg and 213 mmHg and 170 mmHg and 164 mmHg | Average Systolic pressure (blood pressure of cats; 210 min after administration): 176.5 mmHg | Systolic pressure, Animal 1-4 individually (blood pressure of cats; 210 min after administration): 159 mmHg and 213 mmHg and 170 mmHg and 164 mmHg | Average Systolic pressure (blood pressure of cats; 240 min after administration): 182.75 mmHg | Systolic pressure, Animal 1-4 individually (blood pressure of cats; 240 min after administration): 178 mmHg and 213 mmHg and 176 mmHg and 164 mmHg | Average Diastolic pressure (blood pressure of cats; before administration): 147.5 mmHg | Average Systolic pressure (blood pressure of cats; before administration): 202.5 mmHg | Diastolic pressure, individual animals (blood pressure of cats; before administration): 143 mmHg and 165 mmHg and 145 mmHg and 137 mmHg | Systolic pressure, Animal 1-4 individually (blood pressure of cats; before administration): 191 mmHg and 215 mmHg and 196 mmHg and 208 mmHg | Time of taking effect ([1]; concentration 1 × 10^−4 mg/ml): 2 min | Contraction force ([1]; concentration 1 × 10^−4 mg/ml, 10 min, then adrenalin 1.2×10^−6 mg/ml, relative to original value): 0.3 | reduction of the contraction of aorta section caused by adrenalin ([1]; concentration range 5×10^−3-1×10^−4 mg/ml): could obviously reduce the contraction of aorta section caused by adrenalin | inhibition of the contraction of aorta smooth muscle caused by adrenalin [1, 4]: inhibit the contraction of aorta smooth muscle of rabbit caused by adrenalin | contraction force resumed by adrenalin, fraction of the original value ([1]; sample 10 min, then adrenalin 1.2×10^−6 mg/ml, stated for the three samples together): ½-⅓ | effect of reducing blood pressure ([2]; 5-20 mg/kg, model of anesthetic rat): very obvious effect of reducing blood pressure | Diastolic pressure [2, 5]: 105 ± 11 mm/Hg | Systolic pressure [2, 5]: 141 ± 9.2 mm/Hg | Diastolic pressure [2, 6]: 84 ± 11 mm/Hg | Systolic pressure [2, 6]: 120 ± 12 mm/Hg | Diastolic pressure [2, 7]: 83 ± 21 mm/Hg | Systolic pressure [2, 7]: 125 ± 14 mm/Hg | Diastolic pressure [2, 8]: 110 ± 18 mm/Hg | Systolic pressure [2, 8]: 163 ± 12 mm/Hg | Diastolic pressure ([2]; SHR rat, before administration): 124 ± 12 mm/Hg | Systolic pressure ([2]; SHR rat, before administration): 174 ± 11 mm/Hg | reduction of systolic pressure and diastolic pressure ([2]; SHR rat, dosage range 10-200 mg/kg, intravenous): could obviously reduce the systolic pressure and diastolic pressure of SHR rat | Relaxation Time ([3]; concentration 1 × 10^−4 mg/ml): 7 h | Time of taking effect ([3]; concentration 1 × 10^−4 mg/ml): 2 min | inhibition of the automatic rhythmic contraction of ileum section [3, 4]: inhibit the automatic rhythmic contraction of ileum section | inhibition of the automatic rhythmic contraction of the ileum section ([3]; different concentrations): could inhibit the automatic rhythmic contraction of the ileum section
